Laboratory results as given in article PMC5321741, “Arylmethylamino steroids as antiparasitic agents” (Nature Communications, 2017).
Read-outs that look alike come from different tables or passages of the source.

Key:
[1] = tested on: P. falciparum (strain 3D7); assay: 72 h 3H-hypoxanthine incorporation assay, asexual blood stages; type: cell-based, Plasmodium falciparum; settings: Plasmodium falciparum
haem = assay: ESI-MS collision-induced dissociation of haem adducts; type: binding; settings: 50 µM haem and 50 µM substrate; for DV50 (dissociation voltage at 50%) of haem adduct: ESI-CID, 20 V to 400 V; for Bottom plateau (adduct remaining at 400 V): fragmentor voltage 400 V
Description: Compound Molar Adduct DV50 Bottom Dissociation mass [Haem+S] (V) plateau Constant
Supplementary Table 7. ESI-MS-CID data (m/z, calculated DV50 = dissociation voltage at 50% and % bottom plateau) of the [haematin-drug]+ adducts and dissociation constants (KD, µM) of the haematin-drug complexes measured with absorption spectrophotometric titrations.
Conditions: 50 µM haem and 50 µM substrate in H2O/CH3CN (5/95) + 0.1% formic acid.
Stability responses of the haem substrate adduct were obtained via ESI-CID experiments.
Positive mode; fragmentor voltage from 20 V to 400 V with 20 V increments. […]
- 41/120 g), and complete dissolution was achieved using an ultrasonic bath. All solutions were protected from daylight to avoid any photochemical degradation. All the physiochemical measurements were carried out at 25.0(2) °C. […]
Electrospray mass spectrometric measurements stopping point
Electrospray mass spectra of the haem complexes were obtained with an Agilent Technologies 6120 quadrupole equipped with an electrospray (ESI) interface. For

[2] = 3D7, 72 h 3H-hypoxanthine incorporation, asexual blood stages, read-out: Antiplasmodial activity IC50 Pf (3D7)
[3] = 3D7, non-steroid-derived analogs, read-out: IC50 on P. falciparum 3D7 asexual blood stages

Q: For COc1ccc2c(c1)CCC1C2CC[C@@]2(C)C1CC[C@H]2N (stereo partly drawn) [1a], which IC50 [1, 2] is on record?
A: > 1000 nM

Q: What about the “DV50 (dissociation voltage at 50%) of haem adduct” value (shortened to “DV50 (dissociation voltage at 50%)”) (haem) of the same compound?
A: 218 V

Q: And the “Bottom plateau (adduct remaining at 400 V)” value (haem)?
A: 1.2%

Q: With COc1ccc2c(c1)CCC1C2CC[C@@]2(C)C1CC[C@H]2/N=C/c1ccccc1O (stereo partly drawn) [1b] as the compound, how does the IC50 [1, 2] read?
A: > 2500 nM

Q: Which IC50 [1, 2] does the source give for COc1ccc2c(c1)CCC1C2CCC2(C)C(NCc3cccc(O)c3)CCC12 (stereo not drawn) [1e] here?
A: 434 nM

Q: Which IC50 [1, 2] does the source give for COc1ccc2c(c1)CCC1C2CCC2(C)C(NCc3ccc(O)cc3)CCC12 (stereo not drawn) [1g] here?
A: 116 nM

Q: For COc1ccc2c(c1)CCC1C2CCC2(C)C(NCc3ccccc3OC)CCC12 (stereo not drawn) [1i], which IC50 [1, 2] is on record?
A: 872 nM

Q: With COc1ccc(CNC2CCC3C4CCc5cc(OC)ccc5C4CCC23C)cc1 (stereo not drawn) [1k] as the compound, how does the IC50 [1, 2] read?
A: 1010 nM

Q: For COc1ccc2c(c1)CCC1C2CC[C@@]2(C)C1CC[C@H]2NCc1cc(Cl)ccc1O (stereo partly drawn) [1s], which IC50 [1, 2] is on record?
A: 11 nM

Q: Which IC50 [1, 2] does the source give for COc1ccc2c(c1)CCC1C2CC[C@@]2(C)C1CC[C@@H]2N (stereo partly drawn) [2a] here?
A: > 1000 nM

Q: What about the “DV50 (dissociation voltage at 50%)” value (haem) of the same compound?
A: 210 V

Q: What about the “Bottom plateau (adduct remaining at 400 V)” value (haem) of the same compound?
A: 1.8%

Q: Which IC50 [1, 2] does the source give for COc1ccc2c(c1)CCC1C2CC[C@@]2(C)C1CC[C@@H]2/N=C/c1ccccc1O (stereo partly drawn) [2b] here?
A: > 2500 nM

Q: Which IC50 [1, 2] does the source give for COc1ccc2c(c1)CCC1C2CC[C@@]2(C)C1CC[C@@H]2NCc1cccc(O)c1 (stereo partly drawn) [2e] here?
A: 741 nM

Q: COc1ccc2c(c1)CCC1C2CC[C@@]2(C)C1CC[C@@H]2NCc1c(O)ccc2ccccc12 (stereo partly drawn) [2m] was tested. Which IC50 [1, 2] did it give?
A: 183 nM

Q: Which IC50 [1, 2] does the source give for COc1ccc2c(c1)CCC1C2CC[C@@]2(C)C1CC[C@@H]2/N=C/c1cc2ccccc2cc1O (stereo partly drawn) [2n] here?
A: 5540 nM

Q: With CCN(CC)c1ccc(/C=N/[C@H]2CCC3C4CCc5cc(OC)ccc5C4CC[C@@]32C)c(O)c1 (stereo partly drawn) [2p] as the compound, how does the IC50 [1, 2] read?
A: > 5000 nM

Q: With CCN(CC)c1ccc(CN[C@H]2CCC3C4CCc5cc(OC)ccc5C4CC[C@@]32C)c(O)c1 (stereo partly drawn) [2q] as the compound, how does the IC50 [1, 2] read?
A: 713 nM

Q: COc1ccc2c(c1)CCC1C2CC[C@@]2(C)C1CC[C@@H]2NCc1cc(Cl)ccc1O (stereo partly drawn) [2s] was tested. Which IC50 [1, 2] did it give?
A: 62 nM

Q: For COc1ccc2c(c1)CCC1C2CC[C@@]2(C)C1CC[C@@H]2NCc1cc([N+](=O)[O-])ccc1O (stereo partly drawn) [2u], which IC50 [1, 2] is on record?
A: 114 nM

Q: With COc1ccc2c(c1)CCC1C2CC[C@]2(C)C[C@H](N)CC12 (stereo partly drawn) [3a] as the compound, how does the IC50 [1, 2] read?
A: > 1000 nM

Q: How did the IC50 [1, 2] turn out when COc1ccc2c(c1)CCC1C2CC[C@]2(C)C[C@@H](N)CC12 (stereo partly drawn) [4a] was run?
A: > 1000 nM

Q: How did the IC50 [1, 2] turn out when COc1ccc2c(c1)CCC1C2CC[C@@]2(C)C1C[C@@H](NCc1cc(Cl)ccc1O)[C@H]2O (stereo partly drawn) [5s] was run?
A: 99 nM

Q: With COc1ccc2c(c1)CCC1C2CC[C@@]2(C)C1C[C@H](NCc1cc(C(C)(C)C)cc(C(C)(C)C)c1O)[C@H]2O (stereo partly drawn) [6w] as the compound, how does the IC50 [1, 2] read?
A: 1620 nM

Q: With COc1ccc2c(c1)CCC1C2CC[C@@]2(C)C1C[C@@H](NCc1cc(Cl)ccc1O)[C@@H]2O (stereo partly drawn) [7s] as the compound, how does the IC50 [1, 2] read?
A: 55 nM

Q: For COc1ccc2c(c1)CCC1C2CC[C@@]2(C)C1C[C@H](/N=C/c1ccccc1O)[C@@H]2O (stereo partly drawn) [8b], which IC50 [1, 2] is on record?
A: > 2500 nM

Q: Oc1ccccc1CNC1CCCC1 [15c] was tested. Which IC50 [1, 3] did it give?
A: > 6000 nM

Q: Which IC50 [1, 3] does the source give for Oc1ccccc1CNC1CCCCC1 [16c] here?
A: > 6000 nM

Q: Oc1ccccc1CNC1CCCCCCC1 [17c] was tested. Which IC50 [1, 2] did it give?
A: 2000 nM

Q: And the IC50 [1, 3]?
A: ~2000 nM

Q: For Oc1ccccc1CNC12CC3CC(CC(C3)C1)C2 [18c], which IC50 [1, 3] is on record?
A: 4000 nM

Q: Which IC50 [1, 3] does the source give for Oc1ccccc1CNc1ccccc1 [19c] here?
A: > 15000 nM

Q: For Oc1ccccc1/C=N/c1ccc2ccc3cccc4ccc1c2c34 [20b], which IC50 [1, 2] is on record?
A: > 15000 nM

Q: For Oc1cc2ccccc2cc1/C=N/c1ccc2ccc3cccc4ccc1c2c34 [20n], which IC50 [1, 2] is on record?
A: > 13000 nM

Q: With Oc1cc2ccccc2cc1CNc1ccc2ccc3cccc4ccc1c2c34 [20o] as the compound, how does the IC50 [1, 2] read?
A: > 13000 nM

Q: How did the “DV50 (dissociation voltage at 50%)” value (haem) turn out when CCN(CC)Cc1cc(Nc2ccnc3cc(Cl)ccc23)ccc1O [amodiaquine, reference compound] was run?
A: 212 V

Q: And the “Bottom plateau (adduct remaining at 400 V)” value (haem)?
A: 7%

Q: Which results are given for C=CC1=C(C)c2cc3[n-]c(cc4[n-]c(cc5nc(cc1n2)C(C)=C5C=C)c(C)c4CCC(=O)O)c(CCC(=O)O)c3C.O.[Fe+2] [hematin, reference compound]?
A: DV50 (dissociation voltage at 50%) of haem adduct (haem): 329 V; Bottom plateau (adduct remaining at 400 V) (haem): ~ 28%
